# Assay results: US20250011798A1, “[…] PRODUCTION” (ModernaTX, Inc., priority 2021, published 2025)
# Key:
# [1] = test system: E. coli strains tolC::K3_amber (K3) and tolC::H342_amber (H342); assay: Growth of transformed tolC::amber E. coli strains over 24 hours in media containing kanamycin or deoxycholate; format: cell-based; conditions: K3 and H342 strains with control luciferase plasmid, TBAF++ media containing deoxycholate (DOC 150), 37° C., FIGS. 3C-3D
# Experimental: It was evaluated whether plasmid-borne expression of a mutant tRNA with an anticodon that is complementary to the tolC amber mutation would allow for expression of full-length TolC protein, and therefore allow the strain to grow in the presence of an otherwise lethal concentration of nalidixic acid (FIG. 2). In this case, a histidine tRNA, hisR, was modified with an anticodon loop that is complementary to the tolC amber STOP codon, UAG on RNA, which is encoded by TAG on DNA. Mutant E. coli strains were generated by introducing either a tolC::K3_amber (referred to as “K3”) or tolC::H342_amber (referred to as “H342”) amber mutation into the genome (FIG. 3A). Introduction of a STOP codon at an early codon of the open reading frame prevents the translation of non-functional TolC peptides with intact leader sequences, which would otherwise be translocated across the inner cell membrane into the periplasmic space or outer membrane. Each strain also contained codon-optimized tolC coding sequences. Both strains were transformed with a plasmid encoding either i) an amber suppressor tRNA that carries histidine (hisR), or ii) luciferase, as a control plasmid. Both plasmids carried a kanamycin-resistance marker to allow for plasmid maintenance during growth. […]
# [2] = test system: tolC mutant strain (tolC::amber, Strain 4); assay: Toxin sensitivity of the tolC::amber mutant strain; format: cell-based, E. coli; conditions: low concentrations; irrespective of the growth media
# Text: The TAG amber mutation was introduced into the tolC ORF a plasmid DNA production strain, Strain 4 (FIG. 2). TolC is the major outer membrane efflux pump component of E. coli. It is not an essential gene, but it is necessary for the efflux of many toxins, and a tolC knockout is lethal at elevated levels. The tolC mutant strain generated by the tolC::amber mutation was therefore hypersensitive to many toxins, such as low concentrations of nalidixic acid, irrespective of the growth media. While a tolC mutant has hypersensitivity to toxins, it can be cultured normally in rich media such as LB or Terrific Broth, which allows for the generation of competent cells that may be used for DNA synthesis in production.
Compound,Effect on growth of strains not expressing the HisR tRNA [1],Sensitivity of the tolC mutant strain to the toxin [2]
deoxycholate [DOC 150],lethal,
CCn1cc(C(=O)O)c(=O)c2ccc(C)nc21 [nalidixic acid],,hypersensitive
